Assay results taken from patent publication US6368788B1 (priority 1987, dated 2002).
Like-named read-outs stand apart in the source and are kept apart here. Marks after values point to notes of the source that are not given here.

Key:
E-RFC = assay: In vitro sheep red blood cell rosette forming response of gastritis patients' T-lymphocytes; assay type: cell-based, human; details: 22 patients
Text: Twenty two patients (all men aged 18-30 years) suffering from chronic primary gastritis and gastro-duodenitis were entered into the trial. Diagnosis was based on physical examination, and clinical and laboratory investigations including roentgenoscopy and endoscopic examination of the stomach and duodenum. Patient entry criteria was further conditioned on the results of laboratory tests for i) pre-treatment immune indices (i.e., numbers of lymphocytes, T-, and B-lymphocytes, etc.; TABLE 46) and ii) the in vitro sheep red blood cell rosette forming response of T-lymphocytes to L-Glu-L-Trp, (i.e., whether in vitro incubation of patient peripheral blood lymphocytes with L-Glu-L-Trp increased the percentage of E-RFC). […] These twelve patients were entered into the trial.

Chronic osteomyelitis = assay: Chronic osteomyelitis; set-up: species or system human; details: in vivo
Protocol: L-Glu-L-Trp was administered to 176 patients with chronic osteomyelitis of various etiology and bone localizations. The control group consisted of 88 patients receiving conventional treatment. L-Glu-L-Trp was administered im as a single daily dosage of 100 μg, or intranasally at a dose of 1 μg/kg daily, over a period of 10 days.

Transfusion reactions = assay: Transfusion reactions; set-up: species or system human; details: in vivo
Protocol: Seventy-six patients (76) requiring hemotransfusion therapy with allogeneic blood were treated with L-Glu-L-Trp in the post-operative period, starting at day 4-6 post-op. Seventy-two patients (72) in a control group received conventional post-operative treatment. L-Glu-L-Trp treatment was administered as a single daily im dose of 100 μg on each of 5 consecutive days, or alternatively, at a dose of 1 μg/kg delivered on the same schedule by the intranasal route.

Staphylococci [1] = assay: Chronic staphylococcal pyoderma, overview (Protocol A); set-up: species or system human; details: in vivo
Protocol: The total clinical trial population eventually under examination consisted of 159 patients with pyoderma, including furunculitis, cellulitis, and folliculitis. Trial Protocol A1, below, details some of the results obtained in this trial. Medications were administered either im or intranasally for 5 consecutive days. Peripheral blood immune indices were decreased prior to treatment and following treatment with L-Glu-L-Trp were restored to within the normal range. […] Clinical improvement was correlated with return of the immune parameters to within the normal range of values. In certain patients, L-Glu-L-Trp was also topically applied as a sterile saline solution of medication for a period of 5 to 10 days at a dosage of 1 μg/kg body weight.

lymphocytes = assay: In vitro incubation of pyoderma patients' lymphocytes with 0.01% L-Glu-L-Trp; assay type: cell-based, human; details: 100 μg/mL in vitro
influenza = assay: Influenza prophylaxis: incidence of acute respiratory diseases and influenza illness; assay type: in vivo, human
Protocol: A group of 452 persons were treated with daily dosages of 100 μg of L-Glu-L-Trp administered im on each of 5-10 consecutive days. A control group consisted of 250 untreated persons. The incidence of diagnosed respiratory diseases and influenza were recorded for both groups over the next four months.

Staphylococci [2] = tested on: Staphylococci
E. coli = assay: Survival after acute peritonitis with LD100 dose of E. coli; assay type: in vivo, mice
Herpes vulgaris = details: in combination with interferon; 7-10 outbreaks per year before
[3] = Following Stage 2, Abscess and indurative acne
[4] = Following Stage 2, Chronic abscess pyoderma
[5] = Following Stage 2, Papular-pustular acne

Substance: L-Glu-L-Trp
- Patients with a positive in vitro response (increased E-RFC) (E-RFC): 55%
- Clinical outcome (Chronic osteomyelitis): pronounced positive effect on clinical course
- Clinical outcome (Transfusion reactions): None of L-Glu-L-Trp treated patients showed clinical manifestations of allogeneic hemotransfusion reactions
- Clinical outcome (Staphylococci [1]): disappearance of skin manifestations and resolution of pyoderma
- E-RFC (lymphocytes): 73.3±2.26%
- OKT4+ lymphocytes (lymphocytes): 18.2±1.6%
- OKT8+ lymphocytes (lymphocytes): 17.9±1.4%
- Average term of hospitalization (influenza; L-Glu-L-Trp group): 6.2 days
- Incidence of lingering and complicated cases for in-patients, % (influenza; L-Glu-L-Trp group): 9.8%
- Need for hospitalization, % (influenza; L-Glu-L-Trp group): 30.6%
- Number of cases of temporary disablement per 100 persons/month (influenza; L-Glu-L-Trp group): 4.1
- Number of days of temporary disablement per 100 persons/month (influenza; L-Glu-L-Trp group): 26.5
- Overall incidence of lingering and complicated cases, % (influenza; L-Glu-L-Trp group): 3.9%
- Pneumonia rate/100 persons/month (influenza; L-Glu-L-Trp group): 0.20
- Sickness rate per 100 persons/month (influenza; L-Glu-L-Trp group): 9.8
- Average term of hospitalization, Ratio Control/TX (influenza; in vivo): 1.4
- Cases of temporary disablement, Ratio Control/TX (influenza; in vivo): 1.7
- Days of temporary disablement, Ratio Control/TX (influenza; in vivo): 2.2
- Incidence of lingering and complicated cases for in-patients, Ratio Control/TX (influenza; in vivo): 2.7
- Need for hospitalization, Ratio Control/TX (influenza; in vivo): 1.7
- Overall incidence of lingering and complicated cases, Ratio Control/TX (influenza; in vivo): 3.5
- Pneumonia rate, Ratio Control/TX (influenza; in vivo): 2.5
- Sickness rate, Ratio Control/TX (influenza; in vivo): 3.1
- Blast Transformation, Con-A (Staphylococci [2]; After L-Glu-L-Trp Therapy): 58.3 ± 3.9%
- Blast Transformation, HSA (Staphylococci [2]; After L-Glu-L-Trp Therapy): 84.9 ± 5.5%
- Blast Transformation, PHA (Staphylococci [2]; After L-Glu-L-Trp Therapy): 40.2 ± 3.9%
- Number of Patients with Clinical Result: Improved (Staphylococci [2]; [3]): 1
- Number of Patients with Clinical Result: Recovered (Staphylococci [2]; [3]): 4
- Number of Patients with Clinical Result: Significantly Improved (Staphylococci [2]; [3]): 1
- Number of Patients with Clinical Result: Recovered (Staphylococci [2]; [4]): 5
- Number of Patients with Clinical Result: Significantly Improved (Staphylococci [2]; [4]): 2
- Number of Patients with Clinical Result: Recovered (Staphylococci [2]; Following Stage 2, Chronic furunculitis): 10
- Number of Patients with Clinical Result: Recovered (Staphylococci [2]; Following Stage 2, Chronic relapsing folliculitis gravis): 1
- Number of Patients with Clinical Result: Recovered (Staphylococci [2]; Following Stage 2, Chronic relapsing osteofolliculitis): 3
- Number of Patients with Clinical Result: Significantly Improved (Staphylococci [2]; Following Stage 2, Chronic ulcerative pyoderma): 2
- Number of Patients with Clinical Result: Recovered (Staphylococci [2]; [5]): 4
- Number of Patients with Clinical Result: Significantly Improved (Staphylococci [2]; [5]): 3
- Number of Patients with Clinical Result: Improved (Staphylococci [2]; Following Stage 2, Totals): 1
- Number of Patients with Clinical Result: No Effect (Staphylococci [2]; Following Stage 2, Totals): 0
- Number of Patients with Clinical Result: Recovered (Staphylococci [2]; Following Stage 2, Totals): 27
- Number of Patients with Clinical Result: Significantly Improved (Staphylococci [2]; Following Stage 2, Totals): 8
- Number of Patients with Clinical Result: Worse (Staphylococci [2]; Following Stage 2, Totals): 0
- B-Lymphocytes (Staphylococci [2]; L-Glu-L-Trp Treatment (n = 36)): 0.28 ± 0.04 ×10^9/L
- B-Lymphocytes % Normal Value (Staphylococci [2]; L-Glu-L-Trp Treatment (n = 36)): (57%)
- B-Lymphocytes (%) (Staphylococci [2]; L-Glu-L-Trp Treatment (n = 36)): 12.1 ± 1.5%
- C3 (Staphylococci [2]; L-Glu-L-Trp Treatment (n = 36)): 0.77 ± 0.02 g/L
- C3, % Normal Value (Staphylococci [2]; L-Glu-L-Trp Treatment (n = 36)): (92%)
- Erythrocyte Sed. Rate (Staphylococci [2]; L-Glu-L-Trp Treatment (n = 36)): 1.2 ± 1.4 mm
- IgA (Staphylococci [2]; L-Glu-L-Trp Treatment (n = 36)): 2.40 ± 0.18 g/L
- IgA % Normal Value (Staphylococci [2]; L-Glu-L-Trp Treatment (n = 36)): (126%)
- IgG (Staphylococci [2]; L-Glu-L-Trp Treatment (n = 36)): 15.5 ± 0.73 g/L
- IgG % Normal Value (Staphylococci [2]; L-Glu-L-Trp Treatment (n = 36)): (135%)
- IgM (Staphylococci [2]; L-Glu-L-Trp Treatment (n = 36)): 1.25 ± 0.12 g/L
- IgM % Normal Value (Staphylococci [2]; L-Glu-L-Trp Treatment (n = 36)): (109%)
- Imm. Cmplx. (Staphylococci [2]; L-Glu-L-Trp Treatment (n = 36)): 45.9 ± 4.9 Units
- Leukocytes (Staphylococci [2]; L-Glu-L-Trp Treatment (n = 36)): 7.75 ± 0.33 ×10^9/L
- Leukocytes % Normal Value (Staphylococci [2]; L-Glu-L-Trp Treatment (n = 36)): (115%)
- Lymphocytes (Staphylococci [2]; L-Glu-L-Trp Treatment (n = 36)): 2.41 ± 0.14 ×10^9/L
- Lymphocytes % Normal Value (Staphylococci [2]; L-Glu-L-Trp Treatment (n = 36)): (120%)
- Lymphocytes, % (Staphylococci [2]; L-Glu-L-Trp Treatment (n = 36)): 30.8 ± 1.4%
- Monocytes (Staphylococci [2]; L-Glu-L-Trp Treatment (n = 36)): 0.43 ± 0.04 ×10^9/L
- Monocytes, % (Staphylococci [2]; L-Glu-L-Trp Treatment (n = 36)): 5.65 ± 0.40%
- Monocytes, % Normal Value (Staphylococci [2]; L-Glu-L-Trp Treatment (n = 36)): (78%)
- NK activity (Staphylococci [2]; L-Glu-L-Trp Treatment (n = 36)): 45.18 ± 2.55 % cytotox.
- Neutrophils (Staphylococci [2]; L-Glu-L-Trp Treatment (n = 36)): 4.54 ± 0.25 10^9/L
- Neutrophils, % (Staphylococci [2]; L-Glu-L-Trp Treatment (n = 36)): 59.8 ± 1.5%
- Neutrophils, % Normal Value (Staphylococci [2]; L-Glu-L-Trp Treatment (n = 36)): (103%)
- Phag. Index (Staphylococci [2]; L-Glu-L-Trp Treatment (n = 36)): 5.31 ± 0.20
- Phagocytic Cells (Staphylococci [2]; L-Glu-L-Trp Treatment (n = 36)): 2.36 ± 0.27 ×10^9/L
- Phagocytic Cells, % Normal Value (Staphylococci [2]; L-Glu-L-Trp Treatment (n = 36)): (89%)
- Surface Ig + B-Lym (Staphylococci [2]; L-Glu-L-Trp Treatment (n = 36)): 0.34 ± 0.05 ×10^9/L
- Surface Ig + B-Lym, % (Staphylococci [2]; L-Glu-L-Trp Treatment (n = 36)): 16.9 ± 1.7%
- Surface Ig + B-Lym, % Normal Value (Staphylococci [2]; L-Glu-L-Trp Treatment (n = 36)): (117%)
- T4^+/T8^+ Ratio (Staphylococci [2]; L-Glu-L-Trp Treatment (n = 36)): 1.32 ± 0.11
- T-Lymphocytes (Staphylococci [2]; L-Glu-L-Trp Treatment (n = 36)): 1.68 ± 0.12 ×10^9/L
- T-Lymphocytes % Normal Value (Staphylococci [2]; L-Glu-L-Trp Treatment (n = 36)): (99%)
- T-Lymphocytes (%) (Staphylococci [2]; L-Glu-L-Trp Treatment (n = 36)): 69.3 ± 1.9 %
- T-helper % Normal Value (Staphylococci [2]; L-Glu-L-Trp Treatment (n = 36)): (71%)
- T-helper (OKT4+) (Staphylococci [2]; L-Glu-L-Trp Treatment (n = 36)): 0.46 ± 0.05 ×10^9/L
- T-helper (OKT4+) % (Staphylococci [2]; L-Glu-L-Trp Treatment (n = 36)): 20.3 ± 2.9%
- T-suppressor % Normal Value (Staphylococci [2]; L-Glu-L-Trp Treatment (n = 36)): (95%)
- T-suppressor (OKT8+) (Staphylococci [2]; L-Glu-L-Trp Treatment (n = 36)): 0.39 ± 0.04 ×10^9/L
- T-suppressor (OKT8+) % (Staphylococci [2]; L-Glu-L-Trp Treatment (n = 36)): 17.1 ± 1.9%
- T-lymphocytes, T4+ lymphocytes, T4+/T8+ ratio and NK activity relative to normal healthy volunteers (Staphylococci [2]; after treatment): > 70%
- Patients with considerable (significant) improvement (Staphylococci [2]; combination therapy): 8
- Patients with improvement (Staphylococci [2]; combination therapy): 1
- Patients with clinical (complete) recovery (Staphylococci [2]; combination therapy, 36 patients): 27
- Surface IgG+ lymphocytes (Staphylococci [2]; following Stage 2): 0.19±0.023 ×10^9/L
- Patients with clinically manifested increased antibiotic sensitivity in vivo (Staphylococci [2]; in vivo): 55-75%
- Clinical recovery, papulous pustular acne (Staphylococci [2]; of 7 patients): 4
- Complete clinical recovery, chronic abscessing pyoderma (Staphylococci [2]; of 7 patients): 5
- Clinical recovery, abscessing and indurative acne (Staphylococci [2]; of 10 patients): 6
- Percentage Survivors (E. coli; 24 hours after injection, Glu-Trp dose 10 μg/kg (alone or + Ampicillin 1 MED)): 83.3* %
- Percentage Survivors (E. coli; 24 hours after injection, Glu-Trp dose 100 μg/kg (alone or + Ampicillin 1 MED)): 77.8*† %
- Percentage Survivors (E. coli; 24 hours after injection, Glu-Trp dose 1000 μg/kg (alone or + Ampicillin 1 MED)): 83.3*† %
- Percentage Survivors (E. coli; 48 hours after injection, Glu-Trp dose 10 μg/kg (alone or + Ampicillin 1 MED)): 11.1%
- Percentage Survivors (E. coli; 48 hours after injection, Glu-Trp dose 100 μg/kg (alone or + Ampicillin 1 MED)): 38.9* %
- Percentage Survivors (E. coli; 48 hours after injection, Glu-Trp dose 1000 μg/kg (alone or + Ampicillin 1 MED)): 44.4* %
- Percentage Survivors (E. coli; 72 hours after injection, Glu-Trp dose 10 μg/kg (alone or + Ampicillin 1 MED)): 11.1%
- Percentage Survivors (E. coli; 72 hours after injection, Glu-Trp dose 100 μg/kg (alone or + Ampicillin 1 MED)): 38.9* %
- Percentage Survivors (E. coli; 72 hours after injection, Glu-Trp dose 1000 μg/kg (alone or + Ampicillin 1 MED)): 44.4* %
- Outbreaks after treatment (Herpes vulgaris): less than one outbreak per year
